Experimental data published in article doi:10.1101/2025.03.14.643404, “A Bivalent Molecular Glue Linking Lysine Acetyltransferases to Oncogene-induced Cell Death” (bioRxiv, 2025).

Columns and labels:
c-MYC mRNA = assay: RT-qPCR of c-MYC transcripts in SUDHL5; format: cell-based, human; conditions: for effect of competitor co-treatment on c-MYC mRNA repression by TCIP3: SUDHL5, 10 nM TCIP3 plus 500 nM inhibitor, 1 h; for c-MYC repression compared with TCIP3: SUDHL5, matched concentrations, transcript or proteomic level
Experimental: Cells were plated at 1M/mL and harvested in TRIsure (Bioline 38033). RNA was extracted using Direct-zol RNA MicroPrep columns (Zymo R2062) treated with DNAseI. cDNA was prepared (Meridian Bioscience BIO-65054) and used for qPCR (Meridian Bioscience BIO-94050) using an AppliedBiosystems QuantStudio 6Pro. Primer sequences were the following:
• c-MYC fwd: […]; • c-MYC rev: […]; • GAPDH fwd: […]; • GAPDH rev: […].

SUDHL5 cells [1] = assay: Cell viability, 72 h compound treatment (PrestoBlue), SUDHL5; format: cell-based, human; conditions: for effect of inhibitor co-treatment on TCIP3 cell killing: SUDHL5, constant 1 nM TCIP3 plus titrated inhibitor, 72 h
Experimental: Thirty thousand cells were seeded in 100 μl of media per well of a 96-well plate and treated with drug for the indicated times and doses. A resazurin-based indicator of cell health (PrestoBlue; P50200, Thermo Fisher) was added for 1.5 h at 37°C, at which point the fluorescence ratio at 560/590 nm was recorded (Tecan Spark). The background fluorescence was subtracted, and the signal was normalized to DMSO-treated cells. IC50 measurements on cell lines were calculated using at least three biological replicates (separate cell passages). Fit of dose–response curves to data and statistical analysis was performed using GraphPad PRISM using the four-parameter log(inhibitor) vs response function.

p300^Q1083A = p300^Q1083A (Homo sapiens, UniProt P41182+Q09472, Q1082A); assay: TR-FRET binary displacement assay, p300 Q1083A bromodomain; format: binding; conditions: α = Kd binary/Kd ternary
Experimental: (§1) Drugs were digitally dispensed (Tecan D300e) into protein-containing wells, and the plate was allowed to incubate in the dark for 1 hour at room temperature. Emission at 490 nm (terbium) and 520 nm (FITC) was measured on a PHERAstar FS plate reader (BMG Labtech) upon excitation with 337 nm. The ratio of signal at 520 nm to 490 nm was calculated and normalized to DMSO-treated protein.

p300^Q1083R = p300^Q1083R (Homo sapiens, UniProt P41182+Q09472, Q1082R); assay: TR-FRET binary displacement assay, p300 Q1083R bromodomain; format: binding; conditions: α = Kd binary/Kd ternary
Experimental: as §1

BCL6^BTB = biological target: T1, BCL6^BTB (Homo sapiens, UniProt P41182); assay: BCL6BTB nanoBRET probe displacement in HEK293T; format: cell-based; conditions: compared with TCIP3
T1 construct: human BCL6 (Uniprot: P41182; aa1–129); expressed in transfected cells; host or cells: HEK293T
Experimental: The construct for NanoLuciferase(NanoLuc)-tagged BCL6^BTB was created as follows in a lentiviral construct: an N-terminal NanoLuc (subcloned from pNLSF-1, Promega N1351) was fused to the BTB domain of human BCL6 (Uniprot: P41182; aa1–129) with an internal GSG linker followed by a V5 tag. HEK293T cells were plated at a density of 6×10^5 cells/mL in 2 mL of DMEM/well in a tissue culture treated 6-well plate and were allowed to incubate overnight at 37 °C. The next day, each well of cells was transfected with 2 ug of NanoLuc-BCL6^BTB (renamed pNSG218) using Lipofectamine 2000. The transfected cells were allowed to incubate overnight at 37 °C. The following day, the transfected cells were trypsizined, washed with PBS, counted with Trypan Blue, and brought to a final concentration of 1.25×10^5 cells/mL in Fluorobrite DMEM (Gibco A1896701) supplemented with 10% FBS. 1 uM TNL-15 probe was added to the cells before plating 5000 cells per well in a volume of 40 uL per well in a 384-well plate. […] Data was then obtained using a PheraStar FS plate reader (BMG Labtech) measuring luminescence with 520-BP and 450-BP filters. […]
For all NanoBRET assays, a dose-response curve with 3 technical replicates was constructed for each compound, and corrected BRET ratios were calculated according to manufacturer assay protocol (Promega TM439). […]

[2] = test system: BCL6-repressed GFP reporter; assay: BCL6 reporter assay (BCL6-repressed GFP) in K422 cells; format: cell-based, human; conditions: 24 h
Experimental: KARPAS422 cells were lentivirally transduced with a construct containing the reporter. Description of the reporter construct has been published previously. After selection, cells were plated and treated with indicated amount of compound for 24 hours. Cells were washed in 2.5% FBS/PBS, stained with 1:250 v/v of 7-AAD (BD 559925) to distinguish live from dead cells, and harvested for flow cytometry on a BD Accuri. Given the polyclonal population after transduction, the area under the curve of the histogram representing FITC signal across all live cells was calculated as an integrative measure of total GFP signal. A GFP-positive gate two standard deviations from the mean was drawn from non-transduced cells and the area past a constant threshold was calculated and normalized to the signal from cells treated with DMSO.

SUDHL5 cells [3] = assay: Global proteome profiling in SUDHL5, whole proteome; format: cell-based, human; conditions: SUDHL5, 10 nM, 6 and 24 hours
Experimental: SUDHL5 cells (6M cells in 6 mL RPMI-1640 media supplemented with 10% FBS and 1x pen-strep) were treated with 0.1% DMSO, 10 nM TCIP3, 10 nM Neg1, 10 nM Neg2, or 250 nM dCBP1 (1000x stocks in DMSO for final 0.1% DMSO concentration) in 3 biologically independent replicates. The cells were washed twice with TBS (50 mM Tris, pH 8.5, and 150 mM NaCl) and then stored at −80 °C until use.
Lysis was performed by first thermally denaturing the samples in residual wash buffer for 5 min at 95 °C. Fresh Lysis Buffer (8 M urea, 150 mM NaCl, and 100 mM HEPES, pH 8.0, in MS-grade water) was then added, and the lysates were homogenized using needle ultrasonication and then normalized to 30 μg of 2 mg/mL by diluting with Lysis Buffer via a Bradford protein concentration assay (Bio-Rad 5000006) in technical duplicates. […]
Samples were then desalted using SOLAμ SPE HRP Peptide Desalting columns (Thermo 60209–001) with a Positive Pressure Manifold and all MS-grade reagents. […] The samples were then reconstituted in 0.1% FA in water and then analyzed by LC-MS/MS (see below).
The reconstituted desalted peptides were then analyzed using a nanoElute 2 UHPLC (Bruker Daltonics, Bremen, Germany) coupled to a timsTOF HT (Bruker Daltonics, Bremen, Germany) via a CaptiveSpray nano-electrospray source. […]

| SMILES | effect of competitor co-treatment on c-MYC mRNA repression by TCIP3 (c-MYC mRNA) | c-MYC repression compared with TCIP3 (c-MYC mRNA) | effect of inhibitor co-treatment on TCIP3 cell killing (SUDHL5 cells [1]) | cooperativity α (p300^Q1083A) | cooperativity α (p300^Q1083R) | cellular binding to BCL6 BTB (BCL6^BTB) | activation of GFP expression [2] | proteome changes relative to DMSO (SUDHL5 cells [3]) | IC50 (SUDHL5 cells [1]; Homo sapiens, SU-DHL-5, SUDHL5, 72 h, read-out: IC50 cell viability / antiproliferation) |
| --- | --- | --- | --- | --- | --- | --- | --- | --- | --- |
| CNC(=O)COc1cc2cc(Nc3nc(N4CCC(C(=O)N(C)C)CC4)ncc3Cl)cc(OC)c2n(C)c1=O [BI-3812] | almost completely restored c-MYC levels to baseline | Neither GNE-781, dCBP-1, NEG1, NEG2, nor the BCL6^BTB inhibitor BI-3812 produced comparable c-MYC repression | buffered the effects of TCIP3 on cell viability |  |  |  |  |  |  |
| CNC(=O)N1CCc2c(c(N3CCCc4cc(-c5cnn(C)c5)c(C(F)F)cc43)nn2C2CCOCC2)C1 [GNE-781] | restored c-MYC levels to those observed with GNE-781 treatment alone | Neither GNE-781, dCBP-1, NEG1, NEG2, nor the BCL6^BTB inhibitor BI-3812 produced comparable c-MYC repression | buffered the effects of TCIP3 on cell viability | ~ 0.88 | ~ 1.0 |  |  |  |  |
| CNC(=O)COc1cc2cc(Nc3nc(N4CCC(C(=O)N5CCN(CCC(=O)N6CCC(n7nc(N8CCCc9cc(-c%10cnn(C)c%10)c(C(F)F)cc98)c8c7CCN(C(=O)c7ccccc7)C8)CC6)CC5)CC4)ncc3Cl)cc(OC)c2n(C)c1=O [NEG2] |  | Neither GNE-781, dCBP-1, NEG1, NEG2, nor the BCL6^BTB inhibitor BI-3812 produced comparable c-MYC repression |  |  |  | potent binders | Neither NEG1 nor NEG2 activated GFP expression | no significant changes relative to DMSO | 2100 nM |
